One may read the EC50 as the midpoint of the concentration-response curve. High values mean a need for much substance, low ones an effect from little substance.

Some results are limits rather than exact numbers.

The target in the assay is Peroxisome proliferator-activated receptor alpha (Homo sapiens) (UniProt Q07869). Put plainly: Agonist activity at human PPARalpha expressed in human MCF7 cells coexpressing TIF2 by luciferase reporter gene assay. In general terms: In a reporter assay the amount or activity of a reporter protein is the signal.
Sequence of Peroxisome proliferator-activated receptor alpha (Homo sapiens) (Q07869 whole entry, looked up): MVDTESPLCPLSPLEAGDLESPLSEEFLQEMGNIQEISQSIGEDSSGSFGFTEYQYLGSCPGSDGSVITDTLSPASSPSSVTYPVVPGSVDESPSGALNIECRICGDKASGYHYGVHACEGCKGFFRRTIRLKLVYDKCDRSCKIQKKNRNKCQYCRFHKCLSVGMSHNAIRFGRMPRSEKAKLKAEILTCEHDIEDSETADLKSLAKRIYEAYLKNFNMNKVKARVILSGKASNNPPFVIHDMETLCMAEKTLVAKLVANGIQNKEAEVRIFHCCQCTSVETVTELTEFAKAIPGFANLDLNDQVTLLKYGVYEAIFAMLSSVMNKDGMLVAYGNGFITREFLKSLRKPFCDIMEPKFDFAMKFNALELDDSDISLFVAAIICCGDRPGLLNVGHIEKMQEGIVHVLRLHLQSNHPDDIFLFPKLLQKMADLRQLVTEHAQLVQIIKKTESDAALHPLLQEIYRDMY
Consider `CCCCCCCC/C=C\CCCCCCCCNC(=O)c1nn(-c2ccc(Cl)cc2Cl)c(-c2ccc(Cl)cc2)c1C`, for which the EC50 was determined as 467 nM.

Consider `CCCCCCCC/C=C\CCCCCCCCNC(=O)c1cc(-c2ccc(Cl)cc2)n(-c2ccc(Cl)cc2Cl)n1`, for which the half-maximal effective concentration (EC50) worked out at 223 nM.

For `CCCCCCCC/C=C\CCCCCCCCNC(=O)c1cc(-c2ccc(Cl)cc2)n(-c2ccc(Cl)cc2)n1`, the EC50 was 524 nM.

With `CCCCCCCCCCCCCCCCNC(=O)c1nn(-c2ccc(Cl)cc2Cl)c(-c2ccc(Cl)cc2)c1C`, the EC50 is > 10000 nM.

For the compound `CCCCCCCCCCCCCCCCNC(=O)c1cc(-c2ccc(Cl)cc2)n(-c2ccc(Cl)cc2Cl)n1`, the EC50 was > 10000 nM.

`CCCCCCCC/C=C\CCCCCCCCNC(=O)c1cc(-c2ccc(Cl)cc2)n(-c2ccccc2)n1` yielded an EC50 of 183 nM.

Consider `CCCCCCCCCCCCCCCCNC(=O)c1cc(-c2ccc(Cl)cc2)n(-c2ccccc2)n1`, for which the EC50 is > 10000 nM.

As to `CCCCCCCCCCCCCCCCNC(=O)c1cc(-c2ccc(Cl)cc2)n(-c2ccc(Cl)cc2)n1`, the EC50 was > 10000 nM.

For the origin of these results see BindingDB's records for doi:10.1016/j.bmc.2008.10.023 (Polymer Functionalization Group (Ictp, Csic), 2008).
